Source: US7932270B2 (Cytokinetics, Inc., priority 2006, dated 2011)

Target: T1, chicken gizzard smooth muscle myosin subfragment-1 chemically crosslinked to cardiac or skeletal actin (Gallus gallus, UniProt P10587)
T1 construct: chicken gizzard smooth muscle myosin subfragment-1; from tissue; host or cells: chicken gizzard
Test: Smooth muscle myosin ATPase dose response assay (pyruvate kinase/horseradish peroxidase/pyruvate oxidase-coupled, amplex red fluorescence)
Assay type: biochemical
Conditions: read-out: IC50 Arithmetic Mean
How it was run: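 Amplex red fluorescence (480 nm excitation, 615 nm emission) tracked ATP hydrolysis by smooth muscle S1 crosslinked to actin with carbodiimide/N-hydroxysuccinimide. Reactions contained 0.15 mM ATP and 100 mM KCl at pH 7.00, 22° C. IC50 came from a four-parameter logistic fit.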

T1 sequence (P02607 2-151): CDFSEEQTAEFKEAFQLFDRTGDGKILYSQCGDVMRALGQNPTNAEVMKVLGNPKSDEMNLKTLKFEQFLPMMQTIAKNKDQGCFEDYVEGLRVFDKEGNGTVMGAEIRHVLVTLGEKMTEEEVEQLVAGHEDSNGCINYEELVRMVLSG
T1 sequence (P10587 84-789): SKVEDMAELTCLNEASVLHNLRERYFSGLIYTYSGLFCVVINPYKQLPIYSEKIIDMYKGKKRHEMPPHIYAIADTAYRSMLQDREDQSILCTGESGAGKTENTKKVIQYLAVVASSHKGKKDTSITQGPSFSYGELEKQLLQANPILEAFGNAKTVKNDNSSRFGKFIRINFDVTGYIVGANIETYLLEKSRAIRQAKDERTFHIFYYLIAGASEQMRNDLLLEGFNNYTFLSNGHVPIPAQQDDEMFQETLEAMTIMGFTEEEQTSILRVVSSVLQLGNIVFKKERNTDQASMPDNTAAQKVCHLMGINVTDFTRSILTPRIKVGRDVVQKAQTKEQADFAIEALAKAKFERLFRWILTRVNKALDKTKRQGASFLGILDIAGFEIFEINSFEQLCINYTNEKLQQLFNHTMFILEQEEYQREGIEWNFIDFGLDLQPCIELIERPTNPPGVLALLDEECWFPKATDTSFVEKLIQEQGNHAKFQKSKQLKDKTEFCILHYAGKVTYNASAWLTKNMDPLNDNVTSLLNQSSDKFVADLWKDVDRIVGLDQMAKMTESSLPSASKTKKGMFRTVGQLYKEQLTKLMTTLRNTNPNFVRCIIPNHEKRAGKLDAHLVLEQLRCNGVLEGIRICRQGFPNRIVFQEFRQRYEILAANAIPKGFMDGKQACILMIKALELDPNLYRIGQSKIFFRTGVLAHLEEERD

SMILES | IC50
O=C(NCc1cc[nH]n1)c1ccc(-c2ccccc2)nc1NCCc1ccccn1 [{6-phenyl-2-[(2-(2-pyridyl)ethyl)amino](3-pyridyl)}-N-(pyrazol-3-ylmethyl)carboxamide] | 711 nM
C[C@H](CNC(=O)c1cc(F)c(-c2cnn(C)c2)nc1NCCc1cccc(F)c1)NC(=O)CN(C)C | 121 nM
COC(=O)CCC(=O)N1CCC[C@@H]1CNC(=O)c1cc(F)c(-c2cnn(C)c2)nc1NCCc1cccc(F)c1 [methyl 4-((2R)-2-{[(5-fluoro-2-{[2-(3-fluorophenyl)ethyl]amino}-6-(1-methylpyrazol-4-yl)(3-pyridyl))carbonylamino]methyl}pyrrolidinyl)-4-oxobutanoate] | 534 nM
NC(=O)c1ccc(-c2ccc(C(=O)NCc3cccnc3)c(NCCc3ccccn3)n2)cc1 [4-{6-[(2-(2-pyridyl)ethyl)amino]-5-[N-(3-pyridylmethyl)carbamoyl]-2-pyridyl}benzamide] | 2540 nM
N#Cc1ccccc1-c1ccc(C(=O)NC[C@@H]2CCCN2C(=O)CN)c(NCCc2cccc(F)c2)n1 [N-{[(2S)-1-(2-aminoacetyl)pyrrolidin-2-yl]methyl}(6-(2-cyanophenyl)-2-{[2-(3-fluorophenyl)ethyl]amino}(3-pyridyl))carboxamide] | 995 nM
O=C(Nc1ccncc1)c1ccc(-c2ccccc2)nc1NCCc1ccccn1 [{6-phenyl-2-[(2-(2-pyridyl)ethyl)amino](3-pyridyl)}-N-(4-pyridyl)carboxamide] | 5210 nM
C[C@@H](CNC(=O)CO)CNC(=O)c1cc(F)c(-c2cnn(C)c2)nc1NCCc1cccc(F)c1 [N-{(2R)-3-[(5-fluoro-2-{[2-(3-fluorophenyl)ethyl]amino}-6-(1-methylpyrazol-4-yl)(3-pyridyl))carbonylamino]-2-methylpropyl}-2-hydroxyacetamide] | 105 nM
C[C@H](CNC(=O)c1ccc(-c2ccccc2C#N)nc1NCCc1cccc(F)c1)N(C)C(=O)CN | 152 nM
CC(C)(C)OC(=O)NCCCC(=O)N1CCC[C@@H]1CNC(=O)c1cc(F)c(-c2ccccc2C#N)nc1NCCc1cccc(F)c1 [N-[((2R)-1-{4-[(tert-butoxy)carbonylamino]butanoyl}pyrrolidin-2-yl)methyl](6-(2-cyanophenyl)-5-fluoro-2-{[2-(3-fluorophenyl)ethyl]amino}(3-pyridyl))carboxamide] | 1060 nM
CC(=O)NCC1CCCCN1C(=O)c1ccc(-c2ccccc2)nc1NCCc1ccccn1 (stereo not drawn) [N-{[1-({6-phenyl-2-[(2-(2-pyridyl)ethyl)amino]-3-pyridyl}carbonyl)-2-piperidyl]methyl}acetamide] | 21200 nM
N#Cc1ccccc1-c1ccc(C(=O)NCc2cc[nH]n2)c(NCCc2cccc(F)c2)n1 [(6-(2-cyanophenyl)-2-{[2-(3-fluorophenyl)ethyl]amino}(3-pyridyl))-N-(pyrazol-3-ylmethyl)carboxamide] | 15 nM
N#Cc1ccccc1-c1ccc(C(=O)NCCCN2C(=O)CC[C@@H]2CN)c(NCCc2cccc(F)c2)n1 [N-{3-[(5R)-5-(aminomethyl)-2-oxopyrrolidinyl]propyl}(6-(2-cyanophenyl)-2-{[2-(3-fluorophenyl)ethyl]amino}(3-pyridyl))carboxamide] | 4950 nM
N#Cc1ccccc1-c1ccc(C(=O)NCc2cccc(CN)c2)c(NCCc2cccc(F)c2)n1 [N-{[3-(aminomethyl)phenyl]methyl}(6-(2-cyanophenyl)-2-{[2-(3-fluorophenyl)ethyl]amino}(3-pyridyl))carboxamide] | 12 nM
O=C(NCc1cccnc1)c1cc2c(nc1NCCc1cccc(F)c1)-c1ccccc1C2=O [(2-{[2-(3-fluorophenyl)ethyl]amino}-5-oxoindeno[3,2-b]pyridin-3-yl)-N-(3-pyridylmethyl)carboxamide] | 88 nM
CN(C)C(=O)[C@@H](N)CNC(=O)c1ccc(-c2ccccc2C#N)nc1NCCc1cccc(F)c1 [(2S)-2-amino-3-[(6-(2-cyanophenyl)-2-{[2-(3-fluorophenyl)ethyl]amino}(3-pyridyl))carbonylamino]-N,N-dimethylpropanamide] | 8180 nM
